In brackets after ≈: the same amount, converted by molar mass. Like-named read-outs stand apart in the source and are kept apart here.
Columns and labels:
[1] = test system: S. aureus MA078038; experiment: MIC, microdilution in CAMHB 24 h; type: cell-based, Staphylococcus aureus; conditions: Staphylococcus aureus; MA078038; Human (CA); MRSA; read-out: MIC
[2] = test system: S. aureus MRSA COL; experiment: MIC, microdilution in CAMHB 24 h; type: cell-based, Staphylococcus aureus; conditions: MRSA COL; for MIC: Staphylococcus aureus
[3] = test system: S. aureus Mu50; experiment: MIC, microdilution in CAMHB 24 h; type: cell-based, Staphylococcus aureus; conditions: for MIC: Staphylococcus aureus
[4] = test system: S. aureus Sa228c; experiment: MIC, microdilution in CAMHB 24 h; type: cell-based, Staphylococcus aureus; conditions: for MIC: Staphylococcus aureus, SA228C
[5] = test system: S. aureus CF1A-L; experiment: MIC, microdilution in CAMHB 24 h; type: cell-based, Staphylococcus aureus; conditions: CF1A-L; for MIC: Staphylococcus aureus, CF1AL
[6] = test system: S. aureus CF2A-L; experiment: MIC, microdilution in CAMHB 24 h; type: cell-based; conditions: CF2A-L; for MIC: Staphylococcus aureus, CF2AL
[7] = test system: S. aureus CF6B-L; experiment: MIC, microdilution in CAMHB 24 h; type: cell-based, Staphylococcus aureus; conditions: CF6B-L; for MIC: Staphylococcus aureus, CF6BL
[8] = test system: S. aureus CF8E-L; experiment: MIC, microdilution in CAMHB 24 h; type: cell-based, Staphylococcus aureus; conditions: CF8E-L; for MIC: Staphylococcus aureus, CF8EL
[9] = test system: S. aureus CF9A-L; experiment: MIC, microdilution in CAMHB 24 h; type: cell-based, Staphylococcus aureus; conditions: CF9A-L; for MIC: Staphylococcus aureus
[10] = test system: S. aureus CF35A-L; experiment: MIC, microdilution in CAMHB 24 h; type: cell-based, Staphylococcus aureus; conditions: CF35A-L; for MIC: Staphylococcus aureus
[11] = test system: S. aureus CF07-L; experiment: MIC, microdilution in CAMHB 24 h; type: cell-based, Staphylococcus aureus; conditions: CF07-L; for MIC: Staphylococcus aureus, CF07L
[12] = test system: S. aureus ATCC 29213; experiment: Time-kill experiments, aminoglycoside alone or with tomatidine (FIGS. 8-10); conditions: alone at ≧1×MIC (1 μg/ml); regrowth observed within 24 h; FIG. 9
[13] = 8 μg/ml of tomatidine, read-out: MIC +TO
[14] = absence of tomatidine, read-out: MIC −TO
[15] = Human (CF lungs), read-out: MIC
[16] = Human (CF lungs), MRSA, read-out: MIC

For NC[C@H]1O[C@H](O[C@H]2[C@H](O)[C@@H](O[C@H]3O[C@H](CO)[C@@H](O)[C@H](N)[C@H]3O)[C@H](N)C[C@@H]2N)[C@H](N)C[C@@H]1O [Tobramycin, tobramycin], the MIC [1] was 0.5 µg/mL (≈ 1.07 µM), the “Fold (−TO/+TO)” value ([2]; 8 μg/ml of tomatidine) was 8-16 fold and the MIC [2, 13] was 0.06 µg/mL (≈ 0.128 µM). The MIC ([2]; Human (SSTI), read-out: MIC) was 0.5 to 1 µg/mL (≈ 1.07 to 2.14 µM), the MIC [2, 14] was 0.5 to 1 µg/mL (≈ 1.07 to 2.14 µM) and the “Fold (−TO/+TO)” value ([3]; Mu50, 8 μg/ml of tomatidine) was 8 fold. For the same compound, the MIC ([3]; Mu50, aac(6′)-aph(2″), ant(4′)-Ia, 8 μg/ml of tomatidine, read-out: MIC +TO) was 128 µg/mL (≈ 274 µM), the MIC ([3]; Mu50, aac(6′)-aph(2″), ant(4′)-Ia, absence of tomatidine, read-out: MIC −TO) was 1020 µg/mL (≈ 2190 µM) and the MIC ([3]; Mu50, Human (SSTI), MRSA, VISA, read-out: MIC) was 1020 µg/mL (≈ 2190 µM). The “Fold (−TO/+TO)” value ([4]; Sa228c, 8 μg/ml of tomatidine) was 4-8 fold, the MIC ([4]; read-out: MIC +TO) was 128 to 256 µg/mL (≈ 274 to 548 µM) and the MIC ([4]; read-out: MIC −TO) was 1020 µg/mL (≈ 2190 µM). The “Fold (−TO/+TO)” value ([5]; 8 μg/ml of tomatidine) was 4-16 fold, the MIC [5, 13] was 0.06 to 0.25 µg/mL (≈ 0.128 to 0.535 µM) and the MIC [5, 15] was 1 µg/mL (≈ 2.14 µM). For the same compound, the MIC [5, 14] was 1 µg/mL (≈ 2.14 µM), the “Fold (−TO/+TO)” value ([6]; 8 μg/ml of tomatidine) was 8-16 fold and the MIC [6, 13] was 0.06 to 0.12 µg/mL (≈ 0.128 to 0.257 µM). The MIC [6, 15] was 1 µg/mL (≈ 2.14 µM), the MIC [6, 14] was 1 µg/mL (≈ 2.14 µM) and the “Fold (−TO/+TO)” value ([7]; 8 μg/ml of tomatidine) was 4-16 fold. It also gave an MIC ([7]; aac(6′)-aph(2″), 8 μg/ml of tomatidine, read-out: MIC +TO) of 16 to 64 µg/mL (≈ 34.2 to 137 µM), an MIC ([7]; aac(6′)-aph(2″), absence of tomatidine, read-out: MIC −TO) of 256 µg/mL (≈ 548 µM) and an MIC [7, 15] of 256 µg/mL (≈ 548 µM). The “Fold (−TO/+TO)” value ([8]; 8 μg/ml of tomatidine) was 4 fold, the MIC [8, 13] was 0.25 µg/mL (≈ 0.535 µM) and the MIC [8, 15] was 1 µg/mL (≈ 2.14 µM). The MIC [8, 14] was 1 µg/mL (≈ 2.14 µM), the “Fold (−TO/+TO)” value ([9]; 8 μg/ml of tomatidine) was 4-8 fold and the MIC ([9]; CF9AL, ant(4′)-Ia, 8 μg/ml of tomatidine, read-out: MIC +TO) was 64 to 256 µg/mL (≈ 137 to 548 µM). For the same compound, the MIC ([9]; CF9AL, ant(4′)-Ia, absence of tomatidine, read-out: MIC −TO) was 512 to 1020 µg/mL (≈ 1100 to 2190 µM), the MIC [9, 16] was 512 to 1020 µg/mL (≈ 1100 to 2190 µM) and the “Fold (−TO/+TO)” value ([10]; 8 μg/ml of tomatidine) was 8-16 fold. It also gave an MIC ([10]; CF35AL, 8 μg/ml of tomatidine, read-out: MIC +TO) of 0.06 µg/mL (≈ 0.128 µM), an MIC ([10]; CF35AL, absence of tomatidine, read-out: MIC −TO) of 0.5 to 1 µg/mL (≈ 1.07 to 2.14 µM) and an MIC [10, 16] of 0.5 to 1 µg/mL (≈ 1.07 to 2.14 µM). For the same compound, the “Fold (−TO/+TO)” value ([11]; 8 μg/ml of tomatidine) was 4-8 fold, the MIC [11, 13] was 0.06 to 0.12 µg/mL (≈ 0.128 to 0.257 µM) and the MIC [11, 15] was 0.5 to 1 µg/mL (≈ 1.07 to 2.14 µM). For the same compound, the MIC [11, 14] was 0.5 to 1 µg/mL (≈ 1.07 to 2.14 µM) and the time-kill activity alone [12] was “bactericidal”.

Reference: patent US9457033B2, “Steroid alkaloids and uses thereof as antimicrobial agents against electron transport-deficient microbes and as potentiators for antimicrobial agents against pathogenic bacteria” (priority 2011, dated 2016)
